Assay results from patent US9241964B2, “Composition from Sphaeranthus indicus and Garcinia mangostana for the control of metabolic syndrome” (LAILA NUTRACEUTICALS, priority 2009, dated 2016).

Columns and labels:
[1] = test system: 3T3-L1 pre-adipocyte cells; assay: Pro-lipolytic activity in differentiated adipocytes (free glycerol release); format: cell-based, mouse; conditions: 3T3-L1 (Table IV)
Experimental: Similarly, the pro-lipolytic activity of the ethyl actate extract (LI/DD-II/054A/01) of Sphaeranthus indicus was assessed in differentiated/mature adipocytes using 3T3-L1 pre-adipocyte cells. The lipolytic activity was assessed in mature adipocytes by measuring free glycerol secreted into the culture medium as per the procedure of Adipolysis Assay Kit (Chemicon International, USA).
The lipolytic activity was assessed in mature adipocytes as per the procedure of Chemicon International, USA, by measuring free glycerol secreted into the culture medium. One hundred thousand 3T3-L1 […] pre-adipocyte cells in Dulbecco's Modified Eagles Medium (DMEM) containing 10% Fetal Bovine Serum (FBS) were taken into each well of a 24-well plate and incubated for 48 h at 37° C. and 5% CO2. The differentiation of pre-adipocyte cells was initiated in a differentiation medium containing 10 μg/ml insulin, 1.0 μM dexamethasone, and 0.5 mM isobutylmethylxanthine (IBMX). The cells were differentiated for 5 days and then the culture medium was removed. […] The samples and the controls were incubated for 15 min, and the absorbance was read at 540 nm. […]

[2] = target: α-amylase; assay: α-Amylase inhibition (DNS method); format: biochemical; conditions: 1% soluble starch as substrate
Experimental: α-Amylase inhibitory activity was measured using the dinitrosalicylic acid (DNS) method developed by Bernfeld (Methods in Enzymology, 1955, Vol. 1, pp 149-158), improved by Jamieson et al (Journal of Dental Research 1969; 48(3): 483) and adopted for testing inhibitory potential of test substances by M. C. M da Silva et al (2004, Pesq. Agropec. bras., Brasilia, 2004; 39(3); pp 201-208) using 1% soluble starch as substrate.
The test substances (α-mangostin, γ-mangostin and AR 933) were pre-incubated with α-amylase 100 μL (10-25 U/mL) at room temperature for 20 minutes prior to the addition of 100 μL of the substrate solution followed by incubation at 37° C. for 10 minutes. The reactions were stopped by the addition of 200 μL of DNS reagent, followed by color development by placing the tubes in boiling water for 5 minutes. After addition of 3.6 mL distilled water, the absorbance was read at 470 nm. Known α-amylase inhibitor was used as positive control and vehicle was used as negative control. Assays were carried out at least in duplicate. Percentage inhibition will be calculated by comparing mean test OD with mean control OD. {% inhibition=[(COD−TOD)/COD]×100}. The IC50 values were calculated by linear regression analysis of the dose response curve.

[3] = test system: 3T3-L1 mouse pre-adipocyte cells; assay: Inhibition of lipid accumulation in differentiated adipocytes (Oil Red O); format: cell-based; conditions: 10 μg/ml; 3T3-L1 (Table III)
Experimental: The inhibition of fat accumulation in the treated cells was compared with the mock treated differentiated adipocytes and percentage inhibition was measured.
One hundred thousand 3T3-L1 […] pre-adipocyte cells in Dulbecco's Modified Eagles Medium (DMEM) containing 10% Fetal Bovine Serum (FBS) were taken into each well of a 24-well plate and incubated for 48 h at 37° C. and 5% CO2. The differentiation of pre-adipocyte cells was initiated in a differentiation medium containing 10 μg/ml insulin, 1.0 μM dexamethasone, and 0.5 mM isobutylmethylxanthine (IBMX) for 48 h. After this the medium was replaced by DMEM containing 10 μg/ml insulin and incubated for 3 days. Then the differentiating cells were treated 10 μg/ml of Sphaeranthus indicus ethyl acetate extract (LI/DD-II/054A/01) and 0.5 μg/ml of 7-hydroxyfrullanolide (LI054A01) and maintained in the medium for another 3-5 days. The cells incubated with 0.1% DMSO were considered as the vehicle control. After the incubation period, cells were washed with phosphate buffered saline (PBS) and fixed with 10% buffered formalin for 1 h at room temperature. One small aliquot of cell suspension was separated for cell counting in hemocytometer chamber. Fixed cells were stained with Oil Red O solution to measure the cellular neutral lipid accumulation. Briefly, cells were washed with PBS, fixed with 10% buffered formalin and stained with Oil Red O solution (0.5 g in 100 ml isopropanol) for 10 min. After removing the staining solution, the dye retained in the cells will be eluted into isopropanol and OD measured at 550 nm. The inhibition of fat accumulation in the treated cells was compared with the mock treated differentiated adipocytes. The treated and control cells were also analyzed and compared for inhibition of lipid accumulation visually under microscope and recorded digitally in suitable image capture system. The anti-adipogenic activities shown by Sphaeranthus Indicus ethyl acetate extract (LI/DD-II/054A/01) and LIO054A01 are summarized in the following table.

[4] = target: α-glucosidase; assay: α-Glucosidase inhibition (p-nitrophenyl α-D-glucopyranose); format: biochemical; conditions: pH 7, room temperature
Experimental: α-Glucosidase inhibitory activity was measured using the in vitro method developed by D. Prasanth et al., (Fitoterapia 2001, 72, 686-688). In a micro plate well was taken 50 μL of α-glucosidase enzyme (0.4 U/mL), and treated with 90 μL of 100 mM phosphate buffer (pH 7) and 10 μL test substances (α-mangostin, γ-mangostin and AR 933) or vehicle control. The contents were mixed well and the reaction mixtures were incubated at room temperature for 5 min, and then added 50 μL of p-nitrophenyl α-D-glucopyranose (20 mM) as substrate. The contents were mixed well and again incubated at room temperature for 15 min. The reaction was stopped by the addition of 30 μL of sodium carbonate solution (135 mM). The absorbance was measured at 405 nm using micro plate reader. Control and test blank ODs were obtained by replacing enzyme with buffer. Percentage inhibitions were calculated by comparing mean test OD with mean control OD. {% inhibition=[(COD−TOD)/COD]×100}. The IC50 values were calculated by linear regression analysis of the dose response curve.

Structure (SMILES) | % acceleration of lipolysis 25 μg/ml [1] [%] | IC50 (μg/ml) for α-amylase [2] [µg/mL] | % inhibition of Lipid accumulation 10 μg/ml [3] [%] | IC50 (μg/ml) for α-glucosidase [4] [µg/mL]
COc1c(O)cc2oc3cc(O)c(CC=C(C)C)c(O)c3c(=O)c2c1CC=C(C)C [α-mangostin] | 156.56 | 3.99 | 16.06 | 0.30
CC(C)=CCc1c(O)cc2oc3cc(O)c(O)c(CC=C(C)C)c3c(=O)c2c1O [γ-mangostin] | 4.52 | 3.88 | 61.57 | 0.16
